This passage reports viability and IC50 results from patent US11013720B2, “Ganetespib-containing particle, pharmaceutical composition comprising the same, and their use in anticancer treatment” (NATIONAL CHIAO TUNG UNIVERSITY, priority 2019, dated 2021).

In assay [1] the test system is A549 cell line. In words: In vitro anticancer effect against A549 cell line (MTT assay). The class given is cell-based. The note with it: Homo sapiens. On the procedure: (§1) The A549 cells described in section 1 of Experimental Materials were placed in a 24-well culture plate at 1×10^4 cells/well, followed by cultivation in DMEM supplemented with 10% FBS at 37° C. and 5% CO2. The A549 cells in the wells were respectively treated with the free ganetespib test solutions and the CHC-ganetespib test solutions. Specifically, 200 μL of a respective test solution was added into a corresponding well containing the A549 cells. The A549 cells which were not treated with the free ganetespib test solutions and the CHC-ganetespib test solutions served as a normal control. After the treatment, cultivation was conducted for 48 hours at 37° C. and 5% CO2.
(§2) The respective resulting culture was subjected to washing twice with PBS after removal of the liquid in the well, and was subjected to determination of cell viability by virtue of the 3-(4,5-dimethylthiazol-2-yl)-2,5-diphenyltetrazoli-umbromide (MTT) assay. Specifically, a suitable amount of a MTT solution (having a MTT concentration of 1.9 mg/mL) was added to the respective culture, followed by incubation for 4 hours. The liquid in the well was removed, and dimethylsulfoxide (DMSO) was added into the well to dissolve formazan dye. Absorbance of the mixture in the well at 450 nm (0D450) was measured using a microplate reader (Tecan Sunrise, Switzerland). The cell viability (%) was calculated by substituting the absorbance into the following equation (2): D=(E/F)×100 (2) • D=cell viability (%) • E=OD450 of respective culture • F=OD450 of normal control
(§3) IC50 (half maximal inhibitory concentration) of the free ganetespib and the CHC-ganetespib particle agasint A549 cell line was determined based on the free ganetespib concentrations and the CHC-ganetespib particle concentrations, respectively, as well as the cell viability resulting from such concentrations.

Assay [2] concerns H1299 cell line. The assay can be described thus: In vitro anticancer effect against H1299 cell line (MTT assay). The class given is cell-based. Conditions: Homo sapiens, NCI-H1299. As for the experimental part: as §1, §2, §3
The in vitro anticancer effect of the free ganetespib and the CHC-ganetespib particle agasint H1299 cell line was determined generally according to the method described in section B of this example, except that the H1299 cells described in section 1 of Experimental Materials were placed in a 24-well culture plate at 5×10^4 cells/well, followed by cultivation in RPMI medium supplemented with 10% FBS.

By viability is commonly meant a per cent measure of how many cells are alive, often set against a control. A low value points to a greater loss of cells. By IC50 is commonly meant the concentration that inhibits the measured activity by half. Low values mean greater potency, high ones weaker potency.

≈ marks a conversion by molar mass, not a printed value.

Regarding `CC(C)c1cc(-c2nnc(O)n2-c2ccc3c(ccn3C)c2)c(O)cc1O` [Free ganetespib, 4-[5-hydroxy-4-(1-methyl-1H-indol-5-yl)-4H-1,2,4-triazol-3-yl]-6-(propan-2-yl)benzene-1,3-diol], the viability at 0.0015625 µg/mL came out at 98% in assay [1] (A549, 1.5625 ng/mL, 48 hours) and 93% in assay [2] (H1299, 1.5625 ng/mL, 48 hours). For the same molecule, the viability at 0.003125 µg/mL in assay [1] (A549, 3.125 ng/mL, 48 hours) stood at 70%; in assay [2] (H1299, 3.125 ng/mL, 48 hours), 85%. Moreover, the viability at 0.00625 µg/mL in assay [1] (A549, 6.25 ng/mL, 48 hours) worked out at 52%; in assay [2] (H1299, 6.25 ng/mL, 48 hours), 55%. In assay [1] (A549, 12.5 ng/mL, 48 hours), this molecule had a viability at 0.0125 µg/mL of 40%. The molecule further gave a viability at 0.025 µg/mL in assay [1] (A549, 25 ng/mL, 48 hours) of 30%. Moreover, the half-maximal inhibitory concentration (IC50) in assay [1] (A549, 48 hours, MTT) was determined as 8.8 ng/mL (≈ 0.0241 µM); in assay [2] (H1299, 48 hours, MTT) it was 10.3 ng/mL (≈ 0.0283 µM). The viability at 0.01 µg/mL in assay [2] (H1299, 10 ng/mL, 48 hours) stood at 48%. For the same molecule, in assay [2] (H1299, 20 ng/mL, 48 hours), the viability at 0.02 µg/mL was found to be 23%.
